In the experiment the test system is L1210 leukemia ip in BDF1 mice, survival T/C. In words: NCI In Vivo Anticancer Drug Screen. Data for tumor model L1210 Leukemia (intraperitoneal) in B6D2F1 (BDF1) mice. To be noted: endpoint: mean survival time, higher = longer survival. Here is the method: The antitumor activity of compounds was measured in mice bearing transplantable tumors. Survival or tumor size were measured and the results are expressed as the measurement made in the treated group (T) divided by the measurement made in the vehicle treated control group (C). The tumor model used in this assay is L1210 Leukemia (intraperitoneal) in B6D2F1 (BDF1) mice

Setting [1] is: dose: 100.0 mg/kg/injection, schedule: Q04DX002 (ip), vehicle: saline with Tween-80.
[2] abbreviates: dose: 200.0 mg/kg/injection, schedule: Q04DX002 (ip), vehicle: saline with Tween-80.
Where [3] appears, read: dose: 400.0 mg/kg/injection, schedule: Q04DX002 (ip), vehicle: saline with Tween-80.
The mark [4] stands for this setting: dose: 6.25 mg/kg/injection, schedule: Q01DX009 (ip), vehicle: Klucel (hydroxypropylcellulose) (HPC).
Where [5] appears, read: dose: 12.5 mg/kg/injection, schedule: Q01DX009 (ip), vehicle: Klucel (hydroxypropylcellulose) (HPC).
Where [6] appears, read: dose: 25.0 mg/kg/injection, schedule: Q01DX009 (ip), vehicle: Klucel (hydroxypropylcellulose) (HPC).
The mark [7] stands for this setting: dose: 25.0 mg/kg/injection, schedule: Q01DX009 (ip), vehicle: saline.
Where [8] appears, read: dose: 100.0 mg/kg/injection, schedule: Q01DX009 (ip), vehicle: saline.
The mark [9] stands for this setting: dose: 50.0 mg/kg/injection, schedule: Q01DX009 (ip), vehicle: Klucel (hydroxypropylcellulose) (HPC).
The mark [10] stands for this setting: dose: 100.0 mg/kg/injection, schedule: Q01DX009 (ip), vehicle: Klucel (hydroxypropylcellulose) (HPC).
Where [11] appears, read: dose: 200.0 mg/kg/injection, schedule: Q01DX009 (ip), vehicle: Klucel (hydroxypropylcellulose) (HPC).
The mark [12] stands for this setting: dose: 100.0 mg/kg/injection, schedule: Q01DX001 (ip), vehicle: carboxymethylcellulose (CMC).
Where [13] appears, read: dose: 200.0 mg/kg/injection, schedule: Q01DX001 (ip), vehicle: carboxymethylcellulose (CMC).
[14] abbreviates: dose: 400.0 mg/kg/injection, schedule: Q01DX001 (ip), vehicle: carboxymethylcellulose (CMC).
[15] abbreviates: dose: 100.0 mg/kg/injection, schedule: Q01DX001 (ip), vehicle: saline with Tween-80.
Setting [16] is: dose: 200.0 mg/kg/injection, schedule: Q01DX001 (ip), vehicle: saline with Tween-80.
[17] abbreviates: dose: 100.0 mg/kg/injection, schedule: Q01DX001 (ip), vehicle: saline.
The mark [18] stands for this setting: dose: 200.0 mg/kg/injection, schedule: Q01DX001 (ip), vehicle: saline.
The mark [19] stands for this setting: dose: 400.0 mg/kg/injection, schedule: Q01DX001 (ip), vehicle: saline.
The mark [20] stands for this setting: dose: 100.0 mg/kg/injection, schedule: Q04DX003 (ip), vehicle: saline with Tween-80.
[21] abbreviates: dose: 200.0 mg/kg/injection, schedule: Q04DX003 (ip), vehicle: saline with Tween-80.
The mark [22] stands for this setting: dose: 400.0 mg/kg/injection, schedule: Q04DX003 (ip), vehicle: saline with Tween-80.

Values joined by “and” are separate entries in the source; they are usually repeats but may differ in a detail not shown here. Identical values can stand only once. Inconclusive results and toxic doses are left out.

As to `OCC(O)C(O)C(O)C(O)CN=Cc1ccccc1O` (stereo unspecified), the T/C was 109 % of control under setting [1], 95 % of control under setting [2] and 103 % of control under setting [3].
Turning to `Nc1cccc2c1ccc1ccc3ccccc3c12`, the T/C is, setting by setting: (dose: 100.0 mg/kg/injection, schedule: Q01DX001 (ip), vehicle: Klucel (hydroxypropylcellulose) (HPC)) 103 % of control; (dose: 200.0 mg/kg/injection, schedule: Q01DX001 (ip), vehicle: Klucel (hydroxypropylcellulose) (HPC)) 101 % of control; (dose: 400.0 mg/kg/injection, schedule: Q01DX001 (ip), vehicle: Klucel (hydroxypropylcellulose) (HPC)) 108 % of control.
Turning to `COc1cc2c(c(OC)c1OC)-c1ccc(SCc3ccccc3)c(=O)cc1[C@@H](NC(C)=O)CC2`, the T/C is, setting by setting: under setting [4], 106 % of control; (dose: 8.2 mg/kg/injection, schedule: Q01DX009 (ip), vehicle: Klucel (hydroxypropylcellulose) (HPC)) 121 % of control; under setting [5], 124 % of control; (dose: 18.0 mg/kg/injection, schedule: Q01DX009 (ip), vehicle: Klucel (hydroxypropylcellulose) (HPC)) 101 % of control; under setting [6], 115 % of control and 92 % of control.
As for `CCOC(=O)/C=C/P(=O)(OCC)OCC`, the T/C was 108 % of control (dose: 100.0 mg/kg/injection, schedule: Q04DX003 (ip), vehicle: saline); 94 % of control (dose: 200.0 mg/kg/injection, schedule: Q04DX003 (ip), vehicle: saline); 96 % of control (dose: 400.0 mg/kg/injection, schedule: Q04DX003 (ip), vehicle: saline).
For `C=CCCCCCCCCC`, the T/C reads like this: under setting [1], 93 % of control; under setting [2], 111 % of control; under setting [3], 104 % of control.
Turning to `CCCCCCCCCCCCCCCCN1CCCN(CCCCCCCCCCCCCCCC)CC1`, the T/C runs as follows: under setting [7], 107 % of control and 113 % of control; (dose: 50.0 mg/kg/injection, schedule: Q01DX009 (ip), vehicle: saline) 95 % of control and 100 % of control; under setting [8], 94 % of control and 102 % of control; (dose: 200.0 mg/kg/injection, schedule: Q01DX009 (ip), vehicle: saline) 91 % of control.
`Nc1nc(N)c(CCCCc2ccccc2)c(-c2ccccc2)n1`: the T/C was 98 % of control under setting [9], 95 % of control under setting [10] and 95 % of control under setting [11].
For `O=[N+]([O-])c1ccc2c(c1)Cc1cc(O)c(I)cc1-2`, the T/C reads like this: under setting [12], 101 % of control; under setting [13], 101 % of control; under setting [14], 97 % of control.
Consider `CCOC(=O)C(C#N)C1CCCCC1` (stereo unspecified), for which the T/C runs as follows: under setting [6], 109 % of control; under setting [9], 102 % of control; under setting [15], 98 % of control; under setting [10], 102 % of control; (dose: 100.0 mg/kg/injection, schedule: Q04DX003 (ip), vehicle: Klucel (hydroxypropylcellulose) (HPC)) 102 % of control; under setting [16], 95 % of control. The T/C by setting is: (dose: 200.0 mg/kg/injection, schedule: Q04DX003 (ip), vehicle: Klucel (hydroxypropylcellulose) (HPC)) 107 % of control; (dose: 400.0 mg/kg/injection, schedule: Q04DX003 (ip), vehicle: Klucel (hydroxypropylcellulose) (HPC)) 100 % of control.
Consider `CC(=O)OCC1OC(SSc2ccccc2)C(OC(C)=O)C(OC(C)=O)C1OC(C)=O` (stereo unspecified), for which the T/C is, setting by setting: under setting [17], 98 % of control; under setting [18], 89 % of control; under setting [19], 89 % of control.
`CC(=O)C(C(C)=O)C1C=CCC1` (stereo unspecified): the T/C is 96 % of control under setting [20], 107 % of control under setting [21] and 89 % of control under setting [22].
As to `Cc1ccc(C2CCCN(C)O2)cc1` (stereo unspecified), the T/C runs as follows: under setting [17], 102 % of control; under setting [18], 101 % of control; under setting [19], 93 % of control.
On to `CC(=O)C1(c2ccccc2)C(C)(C)C(C)(C)C(=O)C(C)(C)C1(C)C`, for which the T/C reads like this: (dose: 100.0 mg/kg/injection, schedule: Q04DX002 (ip), vehicle: gum acacia) 99 % of control; (dose: 200.0 mg/kg/injection, schedule: Q04DX002 (ip), vehicle: gum acacia) 96 % of control; (dose: 400.0 mg/kg/injection, schedule: Q04DX002 (ip), vehicle: gum acacia) 92 % of control.
As to `CC12CCCC(O)(C1)NC(=O)C2C#N` (stereo unspecified), the T/C by setting is: under setting [12], 102 % of control; under setting [13], 97 % of control; under setting [14], 94 % of control.
For `CNC(=O)/C(=C\c1ccccc1)NC(C)=O`, the T/C is 91 % of control under setting [15]; 107 % of control under setting [16]; 100 % of control (dose: 400.0 mg/kg/injection, schedule: Q01DX001 (ip), vehicle: saline with Tween-80).
As for `Nc1cncc(Br)c1NCCc1ccccc1`, the T/C under setting [12] is 103 % of control, the T/C under setting [13] is 97 % of control and the T/C under setting [14] is 101 % of control.
Consider `O=C1C=C(O)C(=O)C=C1O`, for which the T/C by setting is: (dose: 3.0 mg/kg/injection, schedule: Q01DX009 (ip), vehicle: saline) 111 % of control; (dose: 5.0 mg/kg/injection, schedule: Q01DX001 (ip), vehicle: saline) 103 % of control; (dose: 6.0 mg/kg/injection, schedule: Q01DX009 (ip), vehicle: saline) 98 % of control; (dose: 10.0 mg/kg/injection, schedule: Q01DX001 (ip), vehicle: saline) 101 % of control; (dose: 10.0 mg/kg/injection, schedule: Q01DX009 (ip), vehicle: saline with Tween-80) 100 % of control; (dose: 12.0 mg/kg/injection, schedule: Q01DX009 (ip), vehicle: saline) 103 % of control. The T/C is 105 % of control and 92 % of control (dose: 12.5 mg/kg/injection, schedule: Q04DX002 (ip), vehicle: saline); 90 % of control (dose: 12.5 mg/kg/injection, schedule: Q04DX003 (ip), vehicle: saline); 98 % of control (dose: 20.0 mg/kg/injection, schedule: Q01DX001 (ip), vehicle: saline); 94 % of control (dose: 25.0 mg/kg/injection, schedule: Q04DX002 (ip), vehicle: saline); 92 % of control (dose: 40.0 mg/kg/injection, schedule: Q01DX009 (ip), vehicle: saline with Tween-80); 108 % of control (dose: 50.0 mg/kg/injection, schedule: Q04DX002 (ip), vehicle: saline).
`O=C(OCC1OC(n2cnc3c(=S)nc[nH]c32)C(OC(=O)c2ccc(Cl)cc2)C1OC(=O)c1ccc(Cl)cc1)c1ccc(Cl)cc1` (stereo unspecified): the T/C is 104 % of control under setting [17]; 122 % of control under setting [8]; 101 % of control under setting [18]; 113 % of control under setting [19]; 166 % of control (dose: 800.0 mg/kg/injection, schedule: Q01DX009 (ip), vehicle: saline).
Regarding `COC(=O)CC1(O)C=CC(=O)C=C1`, the T/C is, setting by setting: under setting [4], 95 % of control; under setting [5], 92 % of control; under setting [6], 108 % of control; under setting [7], 100 % of control.
Turning to `O=S(=O)(Cc1ccccc1)CS(=O)(=O)Cc1ccccc1`, the T/C by setting is: (dose: 75.0 mg/kg/injection, schedule: Q04DX003 (ip), vehicle: saline) 92 % of control; under setting [20], 106 % of control; (dose: 150.0 mg/kg/injection, schedule: Q04DX003 (ip), vehicle: saline) 90 % of control; under setting [21], 112 % of control; (dose: 300.0 mg/kg/injection, schedule: Q04DX003 (ip), vehicle: saline) 87 % of control; under setting [22], 98 % of control.
Take `O=P(NC12CC3CC(CC(C3)C1)C2)(Oc1ccccc1Cl)Oc1ccccc1Cl`: the T/C runs as follows: under setting [10], 101 % of control; under setting [11], 101 % of control; (dose: 400.0 mg/kg/injection, schedule: Q01DX009 (ip), vehicle: Klucel (hydroxypropylcellulose) (HPC)) 95 % of control.

The record behind these values is PubChem BioAssay AID248 (DTP/NCI, 2004).
